Measured values from ChEMBL document CHEMBL1156230, “Identification of phenylsulfone-substituted quinoxaline (WYE-672) as a tissue selective liver X-receptor (LXR) agonist” (J Med Chem, 2010).
The source made the active and inactive calls. No cut-off for these calls is given here.

Columns and labels:
Mus musculus [1] = assay: Antiatherosclerotic activity against high fat/high cholesterol fed LDLR-deficient mouse assessed as scd1 gene regulation at 3 mg/kg administered with diet for 7 days by Experion chip analysis; type: functional, organism-based; parameters: dose 3 mg/kg
Mus musculus [2] = assay: Antiatherosclerotic activity against high fat/high cholesterol fed LDLR-deficient mouse assessed as apo5 gene regulation at 3 mg/kg administered with diet for 7 days by Experion chip analysis; type: functional, organism-based; parameters: dose 3 mg/kg
Mus musculus [3] = assay: Antiatherosclerotic activity against high fat/high cholesterol fed LDLR-deficient mouse assessed as pcsk9 gene regulation at 0.6 mg/kg administered with diet for 7 days by Experion chip analysis; type: functional, organism-based; parameters: dose 0.6 mg/kg
Mus musculus [4] = assay: Antiatherosclerotic activity against high fat/high cholesterol fed LDLR-deficient mouse assessed as Fasn gene regulation at 3 mg/kg administered with diet for 7 days by Experion chip analysis; type: functional, organism-based; parameters: dose 3 mg/kg
Mus musculus [5] = assay: Antiatherosclerotic activity against high fat/high cholesterol fed LDLR-deficient mouse assessed as abcg5 gene regulation at 3 mg/kg administered with diet for 8 weeks by Experion chip analysis
Mus musculus [6] = assay: Antiatherosclerotic activity against high fat/high cholesterol fed LDLR-deficient mouse assessed as scab1 gene regulation at 0.6 mg/kg administered with diet for 7 days by Experion chip analysis; type: functional, organism-based; parameters: dose 0.6 mg/kg
Mus musculus [7] = assay: Antiatherosclerotic activity against high fat/high cholesterol fed LDLR-deficient mouse assessed as ldlr gene regulation at 3 mg/kg administered with diet for 7 days by Experion chip analysis; type: functional, organism-based; parameters: dose 3 mg/kg
Mus musculus [8] = assay: Antiatherosclerotic activity against high fat/high cholesterol fed LDLR-deficient mouse duodenum assessed as induction of ABCA1 expression at 10 mg/kg administered with diet for 8 weeks; type: functional, organism-based; parameters: dose 10 mg/kg
Mus musculus [9] = assay: Antiatherosclerotic activity against high fat/high cholesterol fed LDLR-deficient mouse assessed as Lipc gene regulation at 3 mg/kg administered with diet for 7 days by Experion chip analysis; type: functional, organism-based; parameters: dose 3 mg/kg
Mus musculus [10] = assay: Antiatherosclerotic activity against high fat/high cholesterol fed LDLR-deficient mouse assessed as abcg8 gene regulation at 10 mg/kg administered with diet for 7 days by Experion chip analysis; type: functional, organism-based; parameters: dose 10 mg/kg
Mus musculus [11] = assay: Antiatherosclerotic activity against high fat/high cholesterol fed LDLR-deficient mouse assessed as scab1 gene regulation at 10 mg/kg administered with diet for 7 days by Experion chip analysis; type: functional, organism-based; parameters: dose 10 mg/kg
Mus musculus [12] = assay: Antiatherosclerotic activity against high fat/high cholesterol fed LDLR-deficient mouse assessed as IPl gene regulation at 0.6 mg/kg administered with diet for 7 days by Experion chip analysis; type: functional, organism-based; parameters: dose 0.6 mg/kg
Mus musculus [13] = assay: Antiatherosclerotic activity against high fat/high cholesterol fed LDLR-deficient mouse duodenum assessed as induction of ABCG8 expression at 10 mg/kg administered with diet for 8 weeks; type: functional, organism-based; parameters: dose 10 mg/kg
Mus musculus [14] = assay: Antiatherosclerotic activity against high fat/high cholesterol fed LDLR-deficient mouse assessed as abcg1 gene regulation at 0.6 mg/kg administered with diet for 7 days by Experion chip analysis; type: functional, organism-based; parameters: dose 0.6 mg/kg
Mus musculus [15] = assay: Antiatherosclerotic activity against high fat/high cholesterol fed LDLR-deficient mouse assessed as scab1 gene regulation at 3 mg/kg administered with diet for 7 days by Experion chip analysis; type: functional, organism-based; parameters: dose 3 mg/kg
Mus musculus [16] = assay: Antiatherosclerotic activity against high fat/high cholesterol fed LDLR-deficient mouse assessed as apo5 gene regulation at 0.6 mg/kg administered with diet for 7 days by Experion chip analysis; type: functional, organism-based; parameters: dose 0.6 mg/kg
Mus musculus [17] = assay: Antiatherosclerotic activity against high fat/high cholesterol fed LDLR-deficient mouse duodenum assessed as induction of SREBP-1c expression at 0.6 mg/kg administered with diet for 8 weeks; type: functional, organism-based; parameters: dose 0.6 mg/kg
Mus musculus [18] = assay: Antiatherosclerotic activity against high fat/high cholesterol fed LDLR-deficient mouse assessed as apoe gene regulation at 10 mg/kg administered with diet for 7 days by Experion chip analysis; type: functional, organism-based; parameters: dose 10 mg/kg
Mus musculus [19] = assay: Antiatherosclerotic activity against high fat/high cholesterol fed LDLR-deficient mouse assessed as srebf1 gene regulation at 3 mg/kg administered with diet for 7 days by Experion chip analysis; type: functional, organism-based; parameters: dose 3 mg/kg
Mus musculus [20] = assay: Antiatherosclerotic activity against high fat/high cholesterol fed LDLR-deficient mouse assessed as adfp gene regulation at 10 mg/kg administered with diet for 7 days by Experion chip analysis; type: functional, organism-based; parameters: dose 10 mg/kg
Mus musculus [21] = assay: Antiatherosclerotic activity against high fat/high cholesterol fed LDLR-deficient mouse assessed as srebf1 gene regulation at 10 mg/kg administered with diet for 7 days by Experion chip analysis; type: functional, organism-based; parameters: dose 10 mg/kg
Mus musculus [22] = assay: Antiatherosclerotic activity against high fat/high cholesterol fed LDLR-deficient mouse assessed as pcsk9 gene regulation at 10 mg/kg administered with diet for 7 days by Experion chip analysis; type: functional, organism-based; parameters: dose 10 mg/kg
Mus musculus [23] = assay: Antiatherosclerotic activity against high fat/high cholesterol fed LDLR-deficient mouse assessed as ldlr gene regulation at 10 mg/kg administered with diet for 7 days by Experion chip analysis; type: functional, organism-based; parameters: dose 10 mg/kg
Mus musculus [24] = assay: Antiatherosclerotic activity against high fat/high cholesterol fed LDLR-deficient mouse assessed as abca1 gene regulation at 0.6 mg/kg administered with diet for 7 days by Experion chip analysis; type: functional, organism-based; parameters: dose 0.6 mg/kg
Mus musculus [25] = assay: Antiatherosclerotic activity against high fat/high cholesterol fed LDLR-deficient mouse macrophages assessed as induction of ABCA1 expression at 3 mg/kg administered with diet for 8 weeks; type: functional, organism-based; parameters: dose 3 mg/kg
Mus musculus [26] = assay: Antiatherosclerotic activity against high fat/high cholesterol fed LDLR-deficient mouse assessed as Lipc gene regulation at 10 mg/kg administered with diet for 7 days by Experion chip analysis; type: functional, organism-based; parameters: dose 10 mg/kg
Mus musculus [27] = assay: Antiatherosclerotic activity against high fat/high cholesterol fed LDLR-deficient mouse macrophages assessed as induction of ABCG1 expression at 10 mg/kg administered with diet for 8 weeks; type: functional, organism-based; parameters: dose 10 mg/kg
Mus musculus [28] = assay: Antiatherosclerotic activity against high fat/high cholesterol fed LDLR-deficient mouse duodenum assessed as induction of ABCG5 expression at 0.6 mg/kg administered with diet for 8 weeks; type: functional, organism-based; parameters: dose 0.6 mg/kg
Mus musculus [29] = species: Mus musculus; assay: Antiatherosclerotic activity against high fat/high cholesterol fed LDLR-deficient mouse assessed as reduction in plasma triglyceride level; type: functional, organism-based
Mus musculus [30] = assay: Antiatherosclerotic activity against high fat/high cholesterol fed LDLR-deficient mouse assessed as pltp gene regulation at 0.6 mg/kg administered with diet for 7 days by Experion chip analysis; type: functional, organism-based; parameters: dose 0.6 mg/kg
Mus musculus [31] = assay: Antiatherosclerotic activity against high fat/high cholesterol fed LDLR-deficient mouse assessed as abcg1 gene regulation at 3 mg/kg administered with diet for 8 weeks by Experion chip analysis
Mus musculus [32] = assay: Antiatherosclerotic activity against high fat/high cholesterol fed LDLR-deficient mouse assessed as apoe gene regulation at 0.6 mg/kg administered with diet for 7 days by Experion chip analysis; type: functional, organism-based; parameters: dose 0.6 mg/kg
Mus musculus [33] = assay: Antiatherosclerotic activity against high fat/high cholesterol fed LDLR-deficient mouse macrophages assessed as induction of ABCG1 expression at 3 mg/kg administered with diet for 8 weeks; type: functional, organism-based; parameters: dose 3 mg/kg
Mus musculus [34] = assay: Antiatherosclerotic activity against high fat/high cholesterol fed LDLR-deficient mouse assessed as apoc1 gene regulation at 3 mg/kg administered with diet for 7 days by Experion chip analysis; type: functional, organism-based; parameters: dose 3 mg/kg
Mus musculus [35] = assay: Antiatherosclerotic activity against high fat/high cholesterol fed LDLR-deficient mouse assessed as abcg5 gene regulation at 10 mg/kg administered with diet for 7 days by Experion chip analysis; type: functional, organism-based; parameters: dose 10 mg/kg
Mus musculus [36] = assay: Antiatherosclerotic activity against high fat/high cholesterol fed LDLR-deficient mouse assessed as srebf1 gene regulation at 0.6 mg/kg administered with diet for 7 days by Experion chip analysis; type: functional, organism-based; parameters: dose 0.6 mg/kg
Mus musculus [37] = assay: Antiatherosclerotic activity against high fat/high cholesterol fed LDLR-deficient mouse assessed as abcg1 gene regulation at 10 mg/kg administered with diet for 7 days by Experion chip analysis; type: functional, organism-based; parameters: dose 10 mg/kg
Mus musculus [38] = assay: Antiatherosclerotic activity against high fat/high cholesterol fed LDLR-deficient mouse assessed as pltp gene regulation at 10 mg/kg administered with diet for 7 days by Experion chip analysis; type: functional, organism-based; parameters: dose 10 mg/kg

| SMILES | Activity (Mus musculus [1]) | Activity (Mus musculus [2]) | Activity (Mus musculus [3]) | Activity (Mus musculus [4]) | Activity (Mus musculus [5]) | Activity (Mus musculus [6]) | Activity (Mus musculus [7]) | Activity (Mus musculus [8]) | Activity (Mus musculus [9]) | Activity (Mus musculus [10]) | Activity (Mus musculus [11]) | Activity (Mus musculus [12]) | Activity (Mus musculus [13]) | Activity (Mus musculus [14]) | Activity (Mus musculus [15]) | Activity (Mus musculus [16]) | Activity (Mus musculus [17]) | Activity (Mus musculus [18]) | Activity (Mus musculus [19]) | Activity (Mus musculus [20]) | further results |
| --- | --- | --- | --- | --- | --- | --- | --- | --- | --- | --- | --- | --- | --- | --- | --- | --- | --- | --- | --- | --- | --- |
| Cc1nc2c(C(F)(F)F)cccc2nc1-c1ccc(-c2cccc(S(C)(=O)=O)c2)cc1 | Active | Active | Active | Active | Active | Active | Active | Active | Active | Active | Active | Active | Active | Active | Active | Active | inactive | Active | inactive | Active | Activity (Mus musculus [21]): Active; Activity (Mus musculus [22]): Active; Activity (Mus musculus [23]): Active; Activity (Mus musculus [24]): Active; Activity (Mus musculus [25]): Active; Activity (Mus musculus [26]): Active; Activity (Mus musculus [27]): Active; Activity (Mus musculus [28]): Active; Activity (Mus musculus [29]): inactive; Activity (Mus musculus [30]): Active; Activity (Mus musculus [31]): Active; Activity (Mus musculus [32]): Active; Activity (Mus musculus [33]): Active; Activity (Mus musculus [34]): Active; Activity (Mus musculus [35]): Active; Activity (Mus musculus [36]): Active; Activity (Mus musculus [37]): Active; Activity (Mus musculus [38]): Active |
| O=C(O)Cc1cccc(OCCCN(Cc2cccc(C(F)(F)F)c2Cl)CC(c2ccccc2)c2ccccc2)c1 | Active | Active | Active | Active | Active | Active | Active | Active | Active | Active | Active | Active | Active | Active | Active | Active | Active | Active | inactive | Active | Activity (Mus musculus [21]): Active; Activity (Mus musculus [22]): Active; Activity (Mus musculus [23]): Active; Activity (Mus musculus [24]): Active; Activity (Mus musculus [25]): Active; Activity (Mus musculus [26]): Active; Activity (Mus musculus [27]): Active; Activity (Mus musculus [28]): Active; Activity (Mus musculus [29]): inactive; Activity (Mus musculus [30]): Active; Activity (Mus musculus [31]): Active; Activity (Mus musculus [32]): Active; Activity (Mus musculus [33]): Active; Activity (Mus musculus [34]): Active; Activity (Mus musculus [35]): Active; Activity (Mus musculus [36]): Active; Activity (Mus musculus [37]): Active; Activity (Mus musculus [38]): Active |
